Series [1] concerns rat. The conditions noted are these: Subchronic oral toxicity in rodents, sprague dawley, Feed, dose end: 90 day, group: systemic, systemic / in life observation / clinical signs / altered breathing rate + systemic / in life observation / food consumption / food ….
Series [2] deals with dog. The note with it: Subchronic oral toxicity in nonrodent, beagle, Feed, dose end: 90 day, group: systemic, systemic / hematology / hematocrit (hct) / hematocrit (hct) + systemic / hematology / hemoglobin (hgb) / hemoglobin (hgb) + systemic / ….
The test system of series [3] is rat. The conditions noted are these: Carcinogenicity, fischer, Inhalation, Whole-Body, dose end: 105 week, group: systemic.
For series [4], the system named is mouse. The note with it: Carcinogenicity, b6c3f1, Inhalation, Whole-Body, dose end: 105 week, group: systemic.
Series [5] concerns mouse. The note with it: Subchronic inhalation toxicity, b6c3f1, Whole-Body, dose end: 14 week, group: systemic.
Series [6] concerns rat. The note with it: Subchronic inhalation toxicity, fischer, Whole-Body, dose end: 14 week, group: systemic.
The subject of series [7] is mouse. The conditions noted are these: Combined chronic toxicity/carcinogenicity; b6c3f1; Oral; Feed; dose end: 24 month; group: systemic; systemic / pathology microscopic / liver / accentuated lobular pattern.
Series [8] relates to dog. The conditions noted are these: Chronic toxicity; beagle; Oral; Gavage/Intubation; dose end: 52 week; group: systemic; systemic / in life observation / body weight / body weight gain + systemic / in life observation / clinical signs / emesis + systemic / in ….
Series [9] deals with rat. The note with it: Subchronic oral toxicity in rodents, fischer, Feed, dose end: 90 day, group: systemic.
The test system of series [10] is rat. The note with it: Combined chronic toxicity/carcinogenicity, wistar, Oral, Feed, dose end: 24 month, group: systemic.
Series [11] concerns mouse. The conditions noted are these: Carcinogenicity, cd1, Oral, Gavage/Intubation, dose end: 16 PND, group: systemic.
The subject of series [12] is mouse. The conditions noted are these: Carcinogenicity, other, Oral, Gavage/Intubation, dose end: 6 month, group: systemic.
The test system of series [13] is mouse. The conditions noted are these: Carcinogenicity, other, Oral, Gavage/Intubation, dose end: 6 month, group: systemic. The source holds these as a separate data set.
Series [14] relates to mouse. The conditions noted are these: Carcinogenicity; other; Oral; Gavage/Intubation; dose end: 6 month; group: systemic; systemic / in life observation / clinical signs / abnormal gait + systemic / in life observation / clinical signs / ataxia + systemic / in ….
Series [15] has as its system rat. The note with it: Multigenerational reproductive toxicity study, sprague dawley, Oral, Feed, dose end: 2 generation.
The subject of series [16] is rat. The conditions noted are these: Subchronic oral toxicity in rodents, fischer, Feed, dose end: 3 month, group: systemic, systemic / organ weight / liver / absolute + systemic / organ weight / liver / relative to body weight + systemic / pathology microscopic / ….
For series [17], the system named is dog. The conditions noted are these: Subchronic oral toxicity in nonrodent, beagle, Capsule, dose end: 13 week, group: systemic.
Series [18] concerns rat. The note with it: Prenatal developmental toxicity study, sprague dawley, Oral, Gavage/Intubation, dose end: 15 GD, group: maternal.
The subject of series [19] is mouse. The conditions noted are these: Carcinogenicity, b6c3f1, Oral, Feed, dose end: 2 year, group: systemic.
For series [20], the system named is dog. The note with it: Chronic toxicity, beagle, Oral, Capsule, dose end: 53 week, group: systemic.
[21] abbreviates: systemic / pathology microscopic / kidney / hyperplasia + systemic / pathology microscopic / nose / atrophy + systemic / pathology ….
[22] abbreviates: systemic / pathology microscopic / nose / atrophy + systemic / pathology microscopic / nose / hyperplasia + systemic / pathology microscopic….
The mark [23] stands for this setting: systemic / in life observation / body weight / body weight + systemic / pathology microscopic / eye / degeneration + systemic / pathology ….
The mark [24] stands for this setting: systemic / in life observation / body weight / body weight + systemic / pathology microscopic / nose / degeneration + systemic / pathology ….
[25] abbreviates: systemic / organ weight / heart / absolute + systemic / pathology microscopic / nose / degeneration + systemic / pathology microscopic / ….
Where [26] appears, read: systemic / pathology microscopic / nose / hyaline droplet + systemic / pathology microscopic / nose / degeneration.
[27] abbreviates: systemic / in life observation / body weight / body weight + systemic / in life observation / body weight / body weight gain + systemic / ….
Setting [28] is: systemic / pathology microscopic / nose / metaplasia.
Where [29] appears, read: systemic / in life observation / body weight / body weight + systemic / in life observation / body weight / body weight gain.
Where [30] appears, read: systemic / in life observation / body weight / body weight + systemic / in life observation / body weight / body weight gain + systemic / in….
[31] abbreviates: systemic / organ weight / liver / relative to body weight + systemic / organ weight / kidney / relative to body weight.
Setting [32] is: systemic / organ weight / heart / absolute.
[33] abbreviates: systemic / in life observation / body weight / body weight gain + systemic / in life observation / clinical signs / dehydration + systemic….
The mark [34] stands for this setting: systemic / clinical chemistry / alanine aminotransferase (alt/sgpt) / alanine aminotransferase (alt/sgpt) + systemic / clinical chemistry / ….
[35] abbreviates: systemic / clinical chemistry / cholesterol / cholesterol + systemic / clinical chemistry / cholesterol / cholesterol, direct ldl + systemic….
[36] abbreviates: systemic / in life observation / clinical signs / body temperature + systemic / in life observation / clinical signs / dehydration + ….
Where [37] appears, read: systemic / pathology microscopic / liver / hypertrophy.
The mark [38] stands for this setting: group: offspring, systemic / in life observation / body weight / offspring (pup) weight.
[39] abbreviates: group: offspring, systemic / in life observation / body weight / offspring (pup) weight + developmental / offspring survival late / viability index / ….
The mark [40] stands for this setting: group: parental, systemic / organ weight / liver / absolute + systemic / organ weight / liver / relative to body weight + systemic / pathology microscopic / ….
Setting [41] is: group: reproductive, reproductive / offspring survival early / litter size / litter size.
[42] abbreviates: systemic / pathology microscopic / spleen / pigmentation.
Where [43] appears, read: systemic / pathology microscopic / spleen / pigmentation + systemic / in life observation / clinical signs / emesis + systemic / pathology ….
[44] abbreviates: systemic / pathology microscopic / liver / hyperplasia + systemic / organ weight / liver / absolute + systemic / organ weight / liver / ….
Where [45] appears, read: systemic / pathology microscopic / liver / pigmentation + systemic / clinical chemistry / alanine aminotransferase (alt/sgpt) / alanine ….

`O.O.O.O.O.O.O.O.O.O.[Na+].[Na+].[O-]B1OB2OB([O-])OB(O1)O2` [Borax]: in the series on rat [1], the LEL came to 770 mg/kg/day, the lowest-observed-adverse-effect level (LOAEL) was found to be 770 mg/kg/day, the NEL was determined as 232 mg/kg/day and the NOAEL was determined as 232 mg/kg/day. Further, in the series with dog [2], the LEL turned out to be 192 mg/kg/day, the LOAEL stood at 192 mg/kg/day, the NEL amounted to 22 mg/kg/day and the NOAEL turned out to be 22 mg/kg/day.
Take `OCc1ccco1` [Furfuryl alcohol]: the lowest-observed-adverse-effect level (LOAEL) with rat [3] (setting [21]), in the series on mouse [4] (setting [23]), in the series on mouse [5] (setting [25]) and in the series on rat [6] (setting [27]) was greater than 32 ppm in each case. In addition, the no-observed-adverse-effect level (NOAEL) with rat [3] (setting [21]), in the series with mouse [4] (setting [23]), in the series with mouse [5] (setting [25]) and in the series on rat [6] (setting [27]) was no less than 32 ppm in each case. Also, the LEL in the series with rat [3] (setting [22]), in the series with mouse [4] (setting [24]), with mouse [5] (setting [26]) and in the series with rat [6] (setting [28]) was 2 ppm throughout. The NEL with rat [3] (setting [22]), with mouse [4] (setting [24]), in the series on mouse [5] (setting [26]) and in the series on rat [6] (setting [28]) was less than 2 ppm throughout.
Consider `Oc1ccccc1-c1ccccc1` [2-Phenylphenol], for which the LEL in the series with mouse [7] came to 250 mg/kg/day; in the series on dog [8], 300 mg/kg/day; in the series on rat [9] (setting [31]), 377 mg/kg/day. In addition, the LOAEL with mouse [7] stood at 250 mg/kg/day; in the series on dog [8], 300 mg/kg/day; in the series on rat [9] (setting [29]), 763 mg/kg/day. Also, the NEL was less than 250 mg/kg/day in the series with mouse [7], 100 mg/kg/day in the series with dog [8] and less than 377 mg/kg/day with rat [9] (setting [31]). Also, the NOAEL in the series with mouse [7] is less than 250 mg/kg/day; with dog [8], 100 mg/kg/day; with rat [9] (setting [30]) it was 377 mg/kg/day.
Regarding `NCCO.O=C(Nc1ccc([N+](=O)[O-])cc1Cl)c1cc(Cl)ccc1O` [Clonitralid], in the series with rat [10] (systemic / in life observation / body weight / body weight gain), the lowest-observed-adverse-effect level (LOAEL) stood at 410 mg/kg/day. Further, the no observed adverse effect level (NOAEL) in the series with rat [10] (systemic / in life observation / body weight / body weight gain + systemic / clinical chemistry / alanine aminotransferase (alt/sgpt) / …) was 100 mg/kg/day. Besides, in the series with rat [10] (setting [32]), the LEL came to 20 mg/kg/day and the NEL is less than 20 mg/kg/day.
Regarding `CCOC(=O)C(C)(C)Oc1ccc(Cl)cc1` [Clofibrate], the lowest-observed-adverse-effect level (LOAEL) with mouse [11] (setting [33]) is greater than 500 mg/kg/day; in the series on mouse [12] (setting [34]), greater than 250 mg/kg/day; in the series with mouse [13] (setting [36]), greater than 650 mg/kg/day; in the series on mouse [14], greater than 500 mg/kg/day. Besides, the NEL in the series on mouse [11] (setting [33]) was 100 mg/kg/day; in the series on mouse [12] (setting [35]) it was less than 50 mg/kg/day; in the series on mouse [13] (setting [37]) it was less than 50 mg/kg/day; in the series on mouse [14] it was 50 mg/kg/day. Also, the NOAEL with mouse [11] (setting [33]) was no less than 500 mg/kg/day; in the series with mouse [12] (setting [34]), no less than 250 mg/kg/day; in the series with mouse [13] (setting [36]) it was no less than 650 mg/kg/day; with mouse [14] it was no less than 500 mg/kg/day. Moreover, the LEL in the series with mouse [11] (systemic / in life observation / clinical signs / palpable mass) amounted to 250 mg/kg/day; in the series with mouse [12] (setting [35]) it was 50 mg/kg/day; in the series on mouse [13] (setting [37]), 50 mg/kg/day; in the series with mouse [14], 200 mg/kg/day.
With `CCCCN(CC)c1c([N+](=O)[O-])cc(C(F)(F)F)cc1[N+](=O)[O-]` [Benfluralin], the LEL in the series on rat [15] (setting [38]) is 74.4 mg/kg/day; in the series on rat [15] (setting [40]), 68.1 mg/kg/day; in the series with rat [15] (setting [41]), 401 mg/kg/day; with rat [16], 16.8 mg/kg/day; with dog [17] (setting [42]) it was 25 mg/kg/day; in the series on rat [18] (systemic / in life observation / body weight / body weight + systemic / in life observation / food consumption / food consumption), 475 mg/kg/day. Moreover, the LEL in the series on mouse [19] (setting [44]) was determined as 185 mg/kg/day; with dog [20] (setting [45]), 25 mg/kg/day. Moreover, the LOAEL with rat [15] (setting [38]) is 74.4 mg/kg/day; in the series on rat [15] (setting [40]), 68.1 mg/kg/day; with rat [15] (setting [41]) it was 401 mg/kg/day; in the series with rat [16] it was greater than 522 mg/kg/day; in the series with dog [17] (setting [42]), 25 mg/kg/day; in the series with rat [18] (setting [29]), 1000 mg/kg/day. Also, the lowest-observed-adverse-effect level (LOAEL) was found to be 185 mg/kg/day in the series with mouse [19] (systemic / pathology microscopic / liver / hyperplasia) and 25 mg/kg/day in the series with dog [20] (systemic / pathology microscopic / liver / pigmentation). Besides, the NEL with rat [15] (setting [39]) is 7.3 mg/kg/day; with rat [15] (setting [40]) it was 7.2 mg/kg/day; in the series with rat [15] (setting [41]), 74.4 mg/kg/day; in the series on rat [16] it was 3.23 mg/kg/day; with dog [17] (setting [43]), 5 mg/kg/day; in the series on rat [18] (setting [30]), 225 mg/kg/day. Besides, the NEL in the series with mouse [19] (setting [44]) worked out at 36.4 mg/kg/day; with dog [20] (setting [45]), 5 mg/kg/day. Further, the no observed adverse effect level (NOAEL) is 7.3 mg/kg/day with rat [15] (setting [39]); 7.2 mg/kg/day in the series with rat [15] (setting [40]); 74.4 mg/kg/day in the series on rat [15] (setting [41]); no less than 522 mg/kg/day in the series with rat [16]; 5 mg/kg/day in the series on dog [17] (setting [43]); 475 mg/kg/day in the series on rat [18] (setting [30]). The no observed adverse effect level (NOAEL) with mouse [19] (setting [44]) was 36.4 mg/kg/day; with dog [20] (setting [45]), 5 mg/kg/day.

(Values after EPA's ToxRefDB 2.)
